Laboratory results as given in patent US20200354426A1 (MEDIMMUNE LIMITED, priority 2016, published 2020).
Numbered stars: 1 amine (or outer) side, 2 acyl side, 3 side chain; on linkers, the order of the positions; unused ones are H or OH. Side chains are listed from the residue outwards. Peptide text beside a SMILES is read from it. * marks the point of attachment. γGlu = O=C(O)[C@H](CCC(=O)[*:2])N[*:1]; Palmitoyl = CCCCCCCCCCCCCCCC(=O)*; Ahx = NCCCCCC(=O)O; βAla = NCCC(=O)O

Key:
Test in all cases: cAMP activity assay in assay medium (assay 1)
Assay type in all cases: cell-based
Human GIPr = molecular target: T1, Human GIPr (Homo sapiens, UniProt P48546); conditions: assay medium; Table 4; read-out: hGIPR EC50
T1 construct: expressed in transfected cells
T1 sequence (P48546 22-466): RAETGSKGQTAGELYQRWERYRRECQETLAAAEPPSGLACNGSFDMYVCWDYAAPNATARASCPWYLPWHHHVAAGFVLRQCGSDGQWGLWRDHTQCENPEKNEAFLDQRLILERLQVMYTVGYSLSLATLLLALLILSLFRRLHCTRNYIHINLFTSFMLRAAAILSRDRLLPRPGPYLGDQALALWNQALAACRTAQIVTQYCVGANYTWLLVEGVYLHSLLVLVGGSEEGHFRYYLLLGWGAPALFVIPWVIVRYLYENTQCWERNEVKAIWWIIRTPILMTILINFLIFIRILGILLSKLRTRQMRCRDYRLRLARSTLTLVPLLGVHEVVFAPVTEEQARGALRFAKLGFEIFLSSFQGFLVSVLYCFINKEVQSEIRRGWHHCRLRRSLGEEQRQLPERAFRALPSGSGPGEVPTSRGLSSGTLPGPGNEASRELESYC
From the text: (§1) Biological Activity of Peptides in Cell-Based cAMP Activity Assay (Assay 1):
(§2) All sample dilutions were made in duplicate.

Human GlucR = molecular target: T2, Human GlucR (Homo sapiens, UniProt P47871); conditions: assay medium; Table 4; read-out: hGlucR EC50
T2 construct: expressed in transfected cells
T2 sequence (P47871 26-477): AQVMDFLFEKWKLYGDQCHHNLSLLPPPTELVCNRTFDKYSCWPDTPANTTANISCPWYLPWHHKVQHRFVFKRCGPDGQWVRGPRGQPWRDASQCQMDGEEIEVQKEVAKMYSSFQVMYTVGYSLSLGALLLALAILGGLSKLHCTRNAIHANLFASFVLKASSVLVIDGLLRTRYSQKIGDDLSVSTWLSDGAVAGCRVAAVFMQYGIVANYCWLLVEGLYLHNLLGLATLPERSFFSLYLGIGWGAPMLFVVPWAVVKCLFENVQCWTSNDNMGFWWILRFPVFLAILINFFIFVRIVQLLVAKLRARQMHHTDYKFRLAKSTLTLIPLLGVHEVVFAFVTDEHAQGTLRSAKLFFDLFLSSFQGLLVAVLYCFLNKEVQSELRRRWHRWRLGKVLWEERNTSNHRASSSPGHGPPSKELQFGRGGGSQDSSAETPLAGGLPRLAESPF
From the text: as §1, §2

Human GLP1R = Human GLP1R (Homo sapiens, UniProt P43220); design: expressed in transfected cells; conditions: assay medium; Table 4; read-out: hGLP1R EC50
Chain of Human GLP1R (P43220 24-463): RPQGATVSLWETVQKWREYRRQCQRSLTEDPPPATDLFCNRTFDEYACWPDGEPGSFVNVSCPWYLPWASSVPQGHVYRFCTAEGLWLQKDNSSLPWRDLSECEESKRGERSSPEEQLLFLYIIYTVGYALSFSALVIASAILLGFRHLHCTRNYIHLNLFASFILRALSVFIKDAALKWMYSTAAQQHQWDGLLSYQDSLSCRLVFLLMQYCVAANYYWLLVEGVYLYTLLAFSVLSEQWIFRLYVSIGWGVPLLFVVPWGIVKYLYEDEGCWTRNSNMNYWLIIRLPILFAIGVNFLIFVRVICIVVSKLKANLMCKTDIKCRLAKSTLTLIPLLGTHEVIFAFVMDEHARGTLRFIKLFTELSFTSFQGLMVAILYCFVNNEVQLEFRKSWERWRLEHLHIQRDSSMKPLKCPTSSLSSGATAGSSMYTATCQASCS
From the text: as §1, §2

Row | EC50 (Human GIPr) | EC50 (Human GlucR) | EC50 (Human GLP1R) | SMILES
1 | 32.2 nM | 0.00469 nM | 0.0157 nM | CCCCCCCCCCCCCCCC(=O)NCCCCCC(=O)NCCCC[C@H](NC(=O)[C@H](CO)NC(=O)[C@H](CC(=O)O)NC(=O)[C@H](CC(C)C)NC(=O)[C@H](Cc1ccc(O)cc1)NC(=O)[C@H](CCC(=O)O)NC(=O)[C@H](CO)NC(=O)[C@H](Cc1ccc(O)cc1)NC(=O)[C@H](CC(=O)O)NC(=O)[C@H](CO)NC(=O)[C@@H](NC(=O)[C@H](Cc1ccccc1)NC(=O)[C@@H](NC(=O)CNC(=O)[C@H](CCC(N)=O)NC(=O)[C@H](CO)NC(=O)[C@@H](N)Cc1c[nH]cn1)[C@@H](C)O)[C@@H](C)O)C(=O)N[C@@H](CCCNC(=N)N)C(=O)N[C@@H](C)C(=O)N[C@@H](CCCNC(=N)N)C(=O)N[C@@H](CC(=O)O)C(=O)N[C@@H](Cc1ccccc1)C(=O)N[C@H](C(=O)N[C@@H](C)C(=O)N[C@@H](Cc1c[nH]c2ccccc12)C(=O)N[C@@H](CC(C)C)C(=O)N[C@@H](CCC(=O)O)C(=O)N[C@@H](CCCNC(=N)N)C(=O)NCC(=O)NCC(N)=O)C(C)C [g794] (H-HSQGTFTSDYSEYLDSK([Ahx-Palmitoyl])RARDFVAWLERGG-NH2; N-terminus assumed)
2 | 579 nM | 0.11 nM | 0.0734 nM | CCCCCCCCCCCCCCCC(=O)NCCC(=O)NCCCC[C@H](NC(=O)[C@H](CO)NC(=O)[C@H](CC(=O)O)NC(=O)[C@H](CC(C)C)NC(=O)[C@H](Cc1ccc(O)cc1)NC(=O)[C@H](CCC(=O)O)NC(=O)[C@H](CO)NC(=O)[C@H](Cc1ccc(O)cc1)NC(=O)[C@H](CC(=O)O)NC(=O)[C@H](CO)NC(=O)[C@@H](NC(=O)[C@H](Cc1ccccc1)NC(=O)[C@@H](NC(=O)CNC(=O)[C@H](CCC(N)=O)NC(=O)[C@H](CO)NC(=O)[C@@H](N)Cc1c[nH]cn1)[C@@H](C)O)[C@@H](C)O)C(=O)N[C@@H](CCCNC(=N)N)C(=O)N[C@@H](C)C(=O)N[C@@H](CCCNC(=N)N)C(=O)N[C@@H](CC(=O)O)C(=O)N[C@@H](Cc1ccccc1)C(=O)N[C@H](C(=O)N[C@@H](C)C(=O)N[C@@H](Cc1c[nH]c2ccccc12)C(=O)N[C@@H](CC(C)C)C(=O)N[C@@H](CCC(=O)O)C(=O)N[C@@H](CCCNC(=N)N)C(=O)NCC(=O)NCC(N)=O)C(C)C [g795] (H-HSQGTFTSDYSEYLDSK([βAla-Palmitoyl])RARDFVAWLERGG-NH2; N-terminus assumed)
3 | 91.2 nM | 1.81 nM | 0.0964 nM | CCCCCCCCCCCCCCCC(=O)N[C@@H](CCC(=O)NCCCC[C@H](NC(=O)[C@H](CCC(=O)O)NC(=O)[C@H](CO)NC(=O)[C@H](Cc1ccc(O)cc1)NC(=O)[C@H](CC(=O)O)NC(=O)[C@H](CO)NC(=O)[C@@H](NC(=O)[C@H](Cc1ccccc1)NC(=O)[C@@H](NC(=O)CNC(=O)[C@H](CCC(N)=O)NC(=O)[C@H](CO)NC(=O)[C@@H](N)Cc1c[nH]cn1)[C@@H](C)O)[C@@H](C)O)C(=O)N[C@@H](CC(C)C)C(=O)N[C@@H](CC(=O)O)C(=O)N[C@@H](CO)C(=O)N[C@@H](CCC(=O)O)C(=O)N[C@@H](CCCNC(=N)N)C(=O)N[C@@H](C)C(=O)N[C@@H](CCCNC(=N)N)C(=O)N[C@@H](CC(=O)O)C(=O)N[C@@H](Cc1ccccc1)C(=O)N[C@H](C(=O)N[C@@H](C)C(=O)N[C@@H](Cc1c[nH]c2ccccc12)C(=O)N[C@@H](CC(C)C)C(=O)N[C@H](C(=O)N[C@@H](C)C(=O)NCC(=O)NCC(N)=O)C(C)C)C(C)C)C(=O)O [g802] (H-HSQGTFTSDYSEK([γGlu-Palmitoyl])LDSERARDFVAWLVAGG-NH2; N-terminus assumed)
4 | 32.9 nM | 0.0108 nM | 0.0296 nM | CCCCCCCCCCCCCCCC(=O)N[C@@H](CCC(=O)NCCCC[C@H](NC(=O)[C@H](Cc1ccc(O)cc1)NC(=O)[C@H](CCCCN)NC(=O)[C@H](CO)NC(=O)[C@H](Cc1ccc(O)cc1)NC(=O)[C@H](CC(=O)O)NC(=O)[C@H](CO)NC(=O)[C@@H](NC(=O)[C@H](Cc1ccccc1)NC(=O)[C@@H](NC(=O)CNC(=O)[C@H](CCC(N)=O)NC(=O)[C@H](CO)NC(=O)[C@@H](N)Cc1c[nH]cn1)[C@@H](C)O)[C@@H](C)O)C(=O)N[C@@H](CC(=O)O)C(=O)N[C@@H](CO)C(=O)N[C@@H](CCCNC(=N)N)C(=O)N[C@@H](CO)C(=O)N[C@@H](C)C(=O)N[C@@H](CCCNC(=N)N)C(=O)N[C@@H](CC(=O)O)C(=O)N[C@@H](Cc1ccccc1)C(=O)N[C@H](C(=O)N[C@@H](CCC(=O)O)C(=O)N[C@@H](Cc1c[nH]c2ccccc12)C(=O)N[C@@H](CC(C)C)C(=O)N[C@H](C(=O)N[C@@H](C)C(=O)NCC(=O)NCC(N)=O)C(C)C)C(C)C)C(=O)O [g803] (H-HSQGTFTSDYSKYK([γGlu-Palmitoyl])DSRSARDFVEWLVAGG-NH2; N-terminus assumed)
5 | 99.7 nM | 0.00144 nM | 0.0228 nM | CCCCCCCCCCCCCCCC(=O)N[C@@H](CCC(=O)NCCCC[C@H](NC(=O)[C@H](Cc1ccc(O)cc1)NC(=O)[C@H](CCCCN)NC(=O)[C@H](CO)NC(=O)[C@H](Cc1ccc(O)cc1)NC(=O)[C@H](CC(=O)O)NC(=O)[C@H](CO)NC(=O)[C@@H](NC(=O)[C@H](Cc1ccccc1)NC(=O)[C@@H](NC(=O)CNC(=O)[C@H](CCC(N)=O)NC(=O)[C@H](CO)NC(=O)[C@@H](N)Cc1c[nH]cn1)[C@@H](C)O)[C@@H](C)O)C(=O)N[C@@H](CC(=O)O)C(=O)N[C@@H](CO)C(=O)N[C@@H](CCCNC(=N)N)C(=O)N[C@@H](CCCNC(=N)N)C(=O)N[C@@H](C)C(=O)N[C@@H](CCCNC(=N)N)C(=O)N[C@@H](CC(=O)O)C(=O)N[C@@H](Cc1ccccc1)C(=O)N[C@H](C(=O)N[C@@H](CCC(=O)O)C(=O)N[C@@H](Cc1c[nH]c2ccccc12)C(=O)N[C@@H](CC(C)C)C(=O)N[C@@H](CCC(=O)O)C(=O)N[C@@H](C)C(=O)NCC(=O)NCC(N)=O)C(C)C)C(=O)O [g805] (H-HSQGTFTSDYSKYK([γGlu-Palmitoyl])DSRRARDFVEWLEAGG-NH2; N-terminus assumed)
6 | 105 nM | 0.0099 nM | 0.171 nM | CCCCCCCCCCCCCCCC(=O)NCCCCCC(=O)NCCCC[C@H](NC(=O)[C@H](CCC(N)=O)NC(=O)[C@H](C)NC(=O)[C@H](C)NC(=O)[C@H](CCCNC(=N)N)NC(=O)[C@H](CO)NC(=O)[C@H](CC(=O)O)NC(=O)[C@H](CC(C)C)NC(=O)[C@H](Cc1ccc(O)cc1)NC(=O)[C@H](CCCCN)NC(=O)[C@H](CO)NC(=O)[C@H](Cc1ccc(O)cc1)NC(=O)[C@H](CC(=O)O)NC(=O)[C@H](CO)NC(=O)[C@@H](NC(=O)[C@H](Cc1ccccc1)NC(=O)[C@@H](NC(=O)CNC(=O)[C@H](CCC(N)=O)NC(=O)[C@H](CO)NC(=O)[C@@H](N)Cc1c[nH]cn1)[C@@H](C)O)[C@@H](C)O)C(=O)N[C@@H](Cc1ccccc1)C(=O)N[C@H](C(=O)N[C@@H](CCC(N)=O)C(=O)N[C@@H](Cc1c[nH]c2ccccc12)C(=O)N[C@@H](CC(C)C)C(=O)N[C@@H](CCC(=O)O)C(=O)N[C@@H](CCCNC(=N)N)C(=O)NCC(=O)NCC(N)=O)C(C)C [g806] (H-HSQGTFTSDYSKYLDSRAAQK([Ahx-Palmitoyl])FVQWLERGG-NH2; N-terminus assumed)
7 | 20 nM | 0.0011 nM | 0.0316 nM | CCCCCCCCCCCCCCCC(=O)N[C@@H](CCC(=O)NCCCC[C@H](NC(=O)[C@H](Cc1ccc(O)cc1)NC(=O)[C@H](CCCCN)NC(=O)[C@H](CO)NC(=O)[C@H](Cc1ccc(O)cc1)NC(=O)[C@H](CC(=O)O)NC(=O)[C@H](CO)NC(=O)[C@@H](NC(=O)[C@H](Cc1ccccc1)NC(=O)[C@@H](NC(=O)CNC(=O)[C@H](CCC(N)=O)NC(=O)[C@H](CO)NC(=O)[C@@H](N)Cc1c[nH]cn1)[C@@H](C)O)[C@@H](C)O)C(=O)N[C@@H](CC(=O)O)C(=O)N[C@@H](CO)C(=O)N[C@@H](CCC(=O)O)C(=O)N[C@@H](CCCNC(=N)N)C(=O)N[C@@H](C)C(=O)N[C@@H](CCC(N)=O)C(=O)N[C@@H](CC(=O)O)C(=O)N[C@@H](Cc1ccccc1)C(=O)N[C@H](C(=O)N[C@@H](CCC(N)=O)C(=O)N[C@@H](Cc1c[nH]c2ccccc12)C(=O)N[C@@H](CC(C)C)C(=O)N[C@@H](CCC(=O)O)C(=O)N[C@@H](C)C(=O)NCC(=O)NCC(N)=O)C(C)C)C(=O)O [g816]
8 | 15.2 nM | 0.00168 nM | 0.0251 nM | CCCCCCCCCCCCCCCC(=O)N[C@@H](CCC(=O)NCCCC[C@H](NC(=O)[C@H](Cc1ccc(O)cc1)NC(=O)[C@H](CCCCN)NC(=O)[C@H](CO)NC(=O)[C@H](Cc1ccc(O)cc1)NC(=O)[C@H](CC(=O)O)NC(=O)[C@H](CO)NC(=O)[C@@H](NC(=O)[C@H](Cc1ccccc1)NC(=O)[C@@H](NC(=O)CNC(=O)[C@H](CCC(N)=O)NC(=O)[C@H](CO)NC(=O)[C@@H](N)Cc1c[nH]cn1)[C@@H](C)O)[C@@H](C)O)C(=O)N[C@@H](CC(=O)O)C(=O)N[C@@H](CO)C(=O)N[C@@H](CCCNC(=N)N)C(=O)N[C@@H](C)C(=O)N[C@@H](C)C(=O)N[C@@H](CCC(N)=O)C(=O)N[C@@H](CC(=O)O)C(=O)N[C@@H](Cc1ccccc1)C(=O)N[C@H](C(=O)N[C@@H](CCC(N)=O)C(=O)N[C@@H](Cc1c[nH]c2ccccc12)C(=O)N[C@@H](CC(C)C)C(=O)N[C@@H](CCC(=O)O)C(=O)N[C@@H](C)C(=O)NCC(=O)NCC(N)=O)C(C)C)C(=O)O [g817] (H-HSQGTFTSDYSKYK([γGlu-Palmitoyl])DSRAAQDFVQWLEAGG-NH2; N-terminus assumed)
